Laboratory results from patent US20250163047A1, “HETEROCYCLIC COMPOUNDS, COMPOSITIONS THEREOF, AND METHODS OF TREATMENT THEREWITH” (BeiGene, Ltd., priority 2022, published 2025).
Read-outs that look alike come from different tables or passages of the source.

Key:
[1] = molecular target: T1, Cbl-b (aa36-427) (Homo sapiens, UniProt Q13191); experiment: Co-expressed Cbl-b with BirA biochemical assay (CBLB/E2-Ub binding, HTRF)
T1 construct: Cbl-b (aa36-427, in-house); made in house
Excerpt: (§1) The assay in the absence of a Cbl-b/Cbl inhibitor, where phosphorylation of Cbl-b/Cbl by the Src kinase allows UbcH5B-Ub to bind to Cbl-b/Cbl and brings the Bodipy-Fluorescein tagged ubiquitin in proximity to the streptavidin-terbium bound to the N-terminal biotinylated Avi-tagged Cbl-b/Cbl. […] The lack of a FRET signal indicates Cbl-b/Cbl is inhibited by the Cbl-b/Cbl inhibitor.

[2] = molecular target: T2, Cbl (aa49-434) (Homo sapiens, UniProt P22681); experiment: Co-expressed Cbl with BirA biochemical assay (CBL/E2-Ub binding, HTRF); conditions: 0.6 nM Cbl co-expressed with BirA, read-out: co-express CBL/E2-Ub-binding assay IC50
T2 construct: Cbl (aa49-434, in-house); made in house
T2 sequence (P22681 49-434): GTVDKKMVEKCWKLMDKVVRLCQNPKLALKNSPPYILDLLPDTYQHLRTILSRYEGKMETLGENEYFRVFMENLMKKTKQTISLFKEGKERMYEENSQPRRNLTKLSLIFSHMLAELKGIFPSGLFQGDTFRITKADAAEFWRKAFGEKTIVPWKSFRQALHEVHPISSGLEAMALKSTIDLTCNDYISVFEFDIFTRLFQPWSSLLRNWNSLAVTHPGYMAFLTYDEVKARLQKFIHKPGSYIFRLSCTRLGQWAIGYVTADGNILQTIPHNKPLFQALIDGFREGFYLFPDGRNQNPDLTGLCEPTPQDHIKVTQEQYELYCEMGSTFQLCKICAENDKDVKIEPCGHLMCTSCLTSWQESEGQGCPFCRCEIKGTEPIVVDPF
Excerpt: as §1

[3] = 0.6 nM Cbl-b co-expressed with BirA, HTRF, read-out: co-express CBLB/E2-Ub-binding assay IC50

T1 sequence (Q13191 36-427): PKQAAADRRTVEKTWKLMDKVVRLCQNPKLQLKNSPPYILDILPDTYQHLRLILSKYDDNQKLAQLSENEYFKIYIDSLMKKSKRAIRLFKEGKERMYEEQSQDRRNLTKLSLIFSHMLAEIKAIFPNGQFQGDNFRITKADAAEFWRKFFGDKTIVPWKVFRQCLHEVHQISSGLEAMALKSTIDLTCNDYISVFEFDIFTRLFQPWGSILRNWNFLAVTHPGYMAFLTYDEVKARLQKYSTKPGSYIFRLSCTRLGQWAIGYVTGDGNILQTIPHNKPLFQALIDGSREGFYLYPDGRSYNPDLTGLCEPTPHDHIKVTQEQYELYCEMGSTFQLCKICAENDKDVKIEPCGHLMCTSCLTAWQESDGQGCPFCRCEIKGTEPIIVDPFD

Row | IC50 [1, 3] | IC50 [2] | SMILES | IC50 [1]
1 | 0.6 nM | 0.6 nM | C[C@H](NCc1cc(C(=O)Nc2cncc([C@]3(c4nncn4C)C[C@@H](C)C3)c2)nc2cc[nH]c12)C1CCC1 [Compound B43, 7-({[(1S)-1-cyclobutylethyl]amino}methyl)-N-{5-[(1r, 3s)-3-methyl-1-(4-methyl-1,2,4-triazol-3-yl)cyclobutyl]pyridin-3-yl}-1H-pyrrolo[3,2-b]pyridine-5-carboxamide] | –
2 | 0.9 nM | 15.7 nM | C[C@H]1CCCN(Cc2cc(C(=O)Nc3cccc([C@]4(c5nncn5C)C[C@@H](CC#N)C4)c3)nc3c2CCC3(C)C)C1 [Compound C9, N-(3-((1s,3R)-3-(cyanomethyl)-1-(4-methyl-4H-1,2,4-triazol-3-yl)cyclobutyl)phenyl)-7,7-dimethyl-4-(((S)-3-methylpiperidin-1-yl)methyl)-6,7-dihydro-5H-cyclopenta[b]pyridine-2-carboxamide] | –
3 | 1.5 nM | 12 nM | Cn1cnnc1[C@]1(c2cccc(NC(=O)c3cc(CNC4(C)CC4)cn4ncnc34)c2)C[C@H](C)C1 [Compound A87, N-(3-((1s, 3s)-3-methyl-1-(4-methyl-4H-1,2,4-triazol-3-yl)cyclobutyl)phenyl)-6-(((1-methylcyclopropyl)amino)methyl)-[1,2,4]triazolo[1,5-a]pyridine-8-carboxamide] | –
4 | 1.7 nM | 5.3 nM | Cc1cnc2c(C(=O)Nc3cccc([C@]4(c5nncn5C)C[C@@H](C)C4)c3)cc(CN[C@@H](C)C3CC3)cn12 [Compound A59, 6-((((S)-1-cyclopropylethyl)amino)methyl)-3-methyl-N-(3-((1s,3R)-3-methyl-1-(4-methyl-4H-1,2,4-triazol-3-yl)cyclobutyl)phenyl)imidazo[1,2-a]pyridine-8-carboxamide] | –
5 | 1.9 nM | 6 nM | C[C@@H]1CN(Cc2cc(C(=O)Nc3cncc([C@]4(c5nncn5C)C[C@@H](C)C4)c3)c3nccn3c2)CC[C@@H]1F [Compound A54, 6-(((3R,4S)-4-fluoro-3-methylpiperidin-1-yl)methyl)-N-(5-((1s,3S)-3-methyl-1-(4-methyl-4H-1,2,4-triazol-3-yl)cyclobutyl)pyridin-3-yl)imidazo[1,2-a]pyridine-8-carboxamide] | –
6 | 0.4 nM | 0.6 nM | C[C@H](NCc1cc(C(=O)Nc2cncc([C@]3(c4nncn4C)C[C@@H](C)C3)c2)c2ncc(F)n2c1)C1CC1 [Compound A72, 6-({[(1S)-1-cyclopropylethyl]amino}methyl)-3-fluoro-N-{5-[(1r, 3s)-3-methyl-1-(4-methyl-1,2,4-triazol-3-yl)cyclobutyl]pyridin-3-yl}imidazo[1,2-a]pyridine-8-carboxamide] | –
7 | 3.9 nM | 32.4 nM | C[C@H]1CCCN(Cc2cc(C(=O)Nc3cccc([C@]4(c5nncn5C)C[C@@H](CC#N)C4)c3)c3ncc(F)n3c2)C1 [Compound A12, 3-fluoro-6-{[(3S)-3-methylpiperidin-1-yl]methyl}-N-{3-[(1s, 3s)-3-(cyanomethyl)-1-(4-methyl-1,2,4-triazol-3-yl)cyclobutyl]phenyl}imidazo[1,2-a]pyridine-8-carboxamide] | –
8 | 1.4 nM | 2.4 nM | C[C@H](NCc1cc(C(=O)Nc2cccc([C@]3(c4nncn4C)C[C@@H](CC#N)C3)c2)c2nccn2c1)C1CCC1 [Compound A38, N-(3-((1s,3R)-3-(cyanomethyl)-1-(4-methyl-4H-1,2,4-triazol-3-yl)cyclobutyl)phenyl)-6-((((S)-1-cyclobutylethyl)amino)methyl)imidazo[1,2-a]pyridine-8-carboxamide] | –
9 | 1.9 nM | 9 nM | Cn1cnnc1[C@]1(c2cncc(NC(=O)c3cc(CNC4(C)CC4)c4[nH]ccc4n3)c2)C[C@H](C)C1 [Compound B44, N-(5-((1s, 3s)-3-methyl-1-(4-methyl-4H-1,2,4-triazol-3-yl)cyclobutyl)pyridin-3-yl)-7-(((1-methylcyclopropyl)amino)methyl)-1H-pyrrolo[3,2-b]pyridine-5-carboxamide] | –
10 | 3 nM | 12 nM | C[C@H]1CCCN(Cc2cc(C(=O)Nc3cccc([C@]4(c5nncn5C)C[C@@H](C)C4)c3)nc3cc[nH]c23)C1 [Compound B4, N-(3-((1s,3R)-3-methyl-1-(4-methyl-4H-1,2,4-triazol-3-yl)cyclobutyl)phenyl)-7-(((S)-3-methylpiperidin-1-yl)methyl)-1H-pyrrolo[3,2-b]pyridine-5-carboxamide] | –
11 | 2.6 nM | 7.8 nM | C[C@H](NCc1cc(C(=O)Nc2cccc([C@]3(c4nncn4C)C[C@@H](CC#N)C3)c2)c2ncc(Cl)n2c1)C1CCCC1 [Compound A34, 3-chloro-N-(3-((1s,3R)-3-(cyanomethyl)-1-(4-methyl-4H-1,2,4-triazol-3-yl)cyclobutyl)phenyl)-6-((((S)-1-cyclopentylethyl)amino)methyl)imidazo[1,2-a]pyridine-8-carboxamide] | –

The remaining lines, values behind:

Row | SMILES | IC50 [1, 3] | IC50 [2] | IC50 [1]
12 | C[C@H](NCc1cc(C(=O)Nc2cccc([C@]3(c4nncn4C)C[C@@H](CC#N)C3)c2)nc2cc[nH]c12)C1CCCC1 [Compound B25, N-(3-((1s,3R)-3-(cyanomethyl)-1-(4-methyl-4H-1,2,4-triazol-3-yl)cyclobutyl)phenyl)-7-((((S)-1-cyclopentylethyl)amino)methyl)-1H-pyrrolo[3,2-b]pyridine-5-carboxamide] | 1.2 nM | 1.1 nM | –
13 | Cn1cnnc1C[C@]1(c2cccc(NC(=O)c3cc(CNCC4(C)CCCC4)cn4c(Cl)cnc34)c2)C[C@H](C#N)C1 [Compound A29, 3-chloro-N-(3-((1r, 3r)-3-cyano-1-((4-methyl-4H-1,2,4-triazol-3-yl)methyl)cyclobutyl)phenyl)-6-((((1-methylcyclopentyl)methyl)amino)methyl)imidazo[1,2-a]pyridine-8-carboxamide] | 1.3 nM | 2.3 nM | –
14 | C[C@H](NCc1cc(C(=O)Nc2cccc([C@]3(c4nncn4C)C[C@@H](C)C3)c2)nc2c1OCC2(C)C)C1CC1 [Compound C35, 7-((((S)-1-cyclopropylethyl)amino)methyl)-3,3-dimethyl-N-(3-((1s,3R)-3-methyl-1-(4-methyl-4H-1,2,4-triazol-3-yl)cyclobutyl)phenyl)-2,3-dihydrofuro[3,2-b]pyridine-5-carboxamide] | 3.8 nM | 24.4 nM | –
15 | C[C@H](NCc1cc(C(=O)Nc2cccc([C@]3(c4nncn4C)C[C@@H](CC#N)C3)c2)nc2c1OCC2(C)C)C1CCC1 [Compound C28, 7-({[(1S)-1-cyclobutylethyl]amino}methyl)-3,3-dimethyl-N-{3-[(1s, 3s)-3-(cyanomethyl)-1-(4-methyl-1,2,4-triazol-3-yl)cyclobutyl]phenyl}-2H-furo[3,2-b]pyridine-5-carboxamide] | 0.8 nM | 3.3 nM | –
16 | Cn1cnnc1[C@]1(c2cccc(NC(=O)c3cc(CNC4(C)CC4)c4c(n3)C(C)(C)CC4)c2)C[C@H](CC#N)C1 [Compound C24, N-(3-((1s, 3s)-3-(cyanomethyl)-1-(4-methyl-4H-1,2,4-triazol-3-yl)cyclobutyl)phenyl)-7,7-dimethyl-4(((1methylcyclopropyl)amino)methyl)-6,7-dihydro-5H-cyclopenta[b]pyridine-2-carboxamide] | 1.6 nM | 10.4 nM | –
17 | Cn1cnnc1[C@]1(c2cccc(NC(=O)c3cc(CNC4(C)CCC4)c4c(n3)C(F)(F)CC4)c2)C[C@H](CC#N)C1 [Compound C42, N-(3-((1s, 3s)-3-(cyanomethyl)-1-(4-methyl-4H-1,2,4-triazol-3-yl)cyclobutyl)phenyl)-7,7-difluoro-4-(((1-methylcyclobutyl)amino)methyl)-6,7-dihydro-5H-cyclopenta[b]pyridine-2-carboxamide] | 1.5 nM | 25.1 nM | –
18 | CC(C)CNCc1cc(C(=O)Nc2cncc([C@]3(c4nncn4C)C[C@@H](C)C3)c2)nc2c(Cl)c[nH]c12 [Compound B55, 3-chloro-7-((isobutylamino)methyl)-N-(5-((1s, 3s)-3-methyl-1-(4-methyl-4H-1,2,4-triazol-3-yl)cyclobutyl)pyridin-3-yl)-1H-pyrrolo[3,2-b]pyridine-5-carboxamide] | – | 14 nM | 1.6 nM
19 | Cn1cnnc1CC1(c2cccc(NC(=O)c3cc(CN4CCCC(C(F)(F)F)C4)c4[nH]ccc4n3)c2)COC1 (stereo not shown) [Compound B9, N-(3-(3-((4-methyl-4H-1,2,4-triazol-3-yl)methyl)oxetan-3-yl)phenyl)-7-((3-(trifluoromethyl)piperidin-1-yl)methyl)-1H-pyrrolo[3,2-b]pyridine-5-carboxamide] | 25.9 nM | 42.9 nM | –
20 | Cn1cnnc1[C@]1(c2cccc(NC(=O)c3cc(CNC4(C)CC4)c4[nH]ccc4n3)c2)C[C@H](CC#N)C1 [Compound B26, N-(3-((1s, 3s)-3-(cyanomethyl)-1-(4-methyl-4H-1,2,4-triazol-3-yl)cyclobutyl)phenyl)-7-(((1-methylcyclopropyl)amino)methyl)-1H-pyrrolo[3,2-b]pyridine-5-carboxamide] | 1.3 nM | 4.1 nM | –
